The subject of assay [1] is Capan-1 xenograft tumor. Description: Suppression of tumor growth by doxorubicin or liposomal doxorubicin after pentoxifylline pretreatment. Format: in vivo, BALB/c nu/nu mice. The note with it: doxorubicin 8 mg/kg i.v., with or without pentoxifylline pretreatment 100 mg/kg/d for two weeks; normalized to volume at treatment start; P<0.05. The source says:
(§1) Female BALB/c nu/nu mice (5 to 6 weeks old) were purchased from Orient Bio Inc. (Seongnam City, Gyeonggi-do, Korea), and were raised in a germ-free animal breeding facility at the Catholic University of Korea, Catholic Medical Center (Seoul, Korea). The animals were raised in a standard state, and supplied with food and water ad libitum. The animals were taken care of in accordance with the guidelines of the Institutional Animal Care and Use Committee (IACUC) of School of Medicine of the Catholic University of Korea (Approval Number; CUMC-2010-0141-01). For induction of tumor, Capan-1 cells were harvested after the trypsin treatment, 5×10^6 living cells were subcutaneously injected into the right flanks of the mice. After tumor was induced, the mice were sacrificed, tumor samples were obtained, and experiments were performed according to each Example to be described below.

The test system of assay [2] is CD31. The assay is described as follows: Blood vessel density by CD31 immunostaining in tumor sections. Format: in vivo, BALB/c nu/nu mice. The following applies: with versus without pentoxifylline.
Description: as §1

Assay [3] deals with mouse TGF-β1. Description: TGF-β1 mRNA expression in tumor (quantitative real-time RT-PCR). Format: in vivo. The note with it: pentoxifylline versus control; direction not stated at b84.
Description: as §1, with “After tumor was induced, the mice were sacrificed, tumor samples were obtained, and experiments were performed according to each Example to be described below.” left out
For the quantitative real-time RT-PCR analysis, total RNAs were isolated from tumor homogenates using the Trizol method and quantified by Nanodrop spectrophotometer (ND-1000). After 1 μg of total RNAs was reverse transcribed from the tissue with AccuPower CycleScript RT PreMix (Bioneer), a quantitative real-time polymerase chain reaction was performed using the LightCycler 480 Real-Time PCR System II (Roche) with SYBR Green Master mix (Roche) according to the manufacturer's recommendation. […]
All expression data were normalized using the GAPDH expression. The relative gene expression was quantified using the ΔΔCt method (2-ΔΔCt).
(Quantitative PCR measures a nucleic acid by following its amplification.)

For assay [4], the system named is TGF-β1. Description: Immunohistochemical staining of TGF-β1 in tumor sections. The class given is in vivo, mice.
Description: as §1, with “below. […] Immunohistochemical staining for α-SMA, TGF-β1, and CTGF was performed using Dako Envision Detection System ([…], DAKO). Paraffin-embedded, formalin fixed samples were cut into sections having a thickness of 3 μm, deparaffinized and rehydrated. For antigen retrieval, a pressure cooker of a microwave method was used as a target retrieval solution ([…], DAKO) for 5 minutes (pH 9.0), and cooled at room temperature for 20 minutes. […]” for “below.”

Assay [5] has as its system CTGF. Description: Immunohistochemical staining of CTGF in tumor sections. Format: in vivo, mice. The note with it: pentoxifylline for two weeks; p<0.05.
Description: as §1, with “below. […] Immunohistochemical staining for α-SMA, TGF-β1, and CTGF was performed using Dako Envision Detection System ([…], DAKO). Paraffin-embedded, formalin fixed samples were cut into sections having a thickness of 3 μm, deparaffinized and rehydrated. For antigen retrieval, a pressure cooker of a microwave method was used as a target retrieval solution ([…], DAKO) for 5 minutes (pH 9.0), and cooled at room temperature for 20 minutes. […]” for “below.”

The subject of assay [6] is α-SMA. Description: Immunohistochemical staining of α-SMA in tumor sections. The class given is in vivo, mice. The following applies: pentoxifylline for two weeks; p<0.001.
Description: as §1, with “below. […] Immunohistochemical staining for α-SMA, TGF-β1, and CTGF was performed using Dako Envision Detection System ([…], DAKO). Paraffin-embedded, formalin fixed samples were cut into sections having a thickness of 3 μm, deparaffinized and rehydrated. For antigen retrieval, a pressure cooker of a microwave method was used as a target retrieval solution ([…], DAKO) for 5 minutes (pH 9.0), and cooled at room temperature for 20 minutes. […]” for “below.”

The test system of assay [7] is TGF-β1. Description: Total and active TGF-β1 in tumor homogenate (ELISA). The class given is in vivo, mice. The note with it: ELISA of tumor homogenate.
Description: as §1
Frozen tumors were cut into small pieces, and homogenized using Precellys 24 homogenizer (Bertin Technologies) in Tissue Extraction Reagent I (Invitrogen) containing protease inhibitor cocktail (Complete Mini, Roche). […] Total protein concentrations were determined by BCA protein assay kit (Pierce). Total and active TGF-β1 concentrations were determined using TGF-β1 ELISA kit (eBioscience) according to the manufacturer's protocol.
Background: In an ELISA, binding on a coated surface is turned into a signal by an enzyme label.

Assay [8] relates to collagen type I. The assay is described as follows: Collagen type I content in tumor sections (immunofluorescence). The class given is in vivo, mice.
Description: as §1

Assay [9] relates to mouse COLIA1 (collagen type I, alpha 1). Description: Collagen type I mRNA expression in tumor (quantitative real-time RT-PCR). The class given is in vivo. The following applies: pentoxifylline pretreatment for two weeks; P<0.02.
Description: as §1, with “After tumor was induced, the mice were sacrificed, tumor samples were obtained, and experiments were performed according to each Example to be described below.” left out
In order to confirm the mRNA expression level of collagen type I, RT-PCR was performed. For the quantitative real-time RT-PCR analysis, total RNAs were isolated from tumor homogenates using the Trizol method and quantified by Nanodrop spectrophotometer (ND-1000). After 1 μg of total RNAs was reverse transcribed from the tissue with AccuPower CycleScript RT PreMix (Bioneer), a quantitative real-time polymerase chain reaction was performed using the LightCycler 480 Real-Time PCR System II (Roche) with SYBR Green Master mix (Roche) according to the manufacturer's recommendation. […]

The test system of assay [10] is Capan-1 xenograft tumor. The assay is described as follows: Suppression of tumor growth by combinatory treatment of pentoxifylline and gemcitabine. The class given is in vivo, BALB/c nu/nu mice. The following applies: pentoxifylline alone 100 mg/kg/d i.p., 28 days.
Description: as §1
The tumor size (mm^3) was calculated by using the equation: V=(a×b^2)/2 (a is the largest diameter of tumor, and b is the smallest diameter of tumor). The relative tumor size was normalized with respect to the volume when a drug treatment of Capan-1 xenograft tumor was initiated. At least three mice per group were used, and the results were presented as an average standard error (SE). The statistical significance was determined by using a 2-sample t-test inferred from the Microsoft Excel 2007. […]

Take `COc1cccc2c1C(=O)c1c(O)c3c(c(O)c1C2=O)C[C@@](O)(C(=O)CO)C[C@@H]3O[C@H]1C[C@H](N)[C@H](O)[C@H](C)O1` [doxorubicin]: the “relative tumor size at day 23” value in assay [1] is reported as 1.52.
For the compound `CC(=O)CCCCn1c(=O)c2c(ncn2C)n(C)c1=O` [pentoxifylline, 1-(5-oxohexyl)-3,7-dimethylxanthine], the “blood vessel density exhibited by CD31 immunostaining” value in assay [2] is listed as “no difference between groups”. Also, the “TGF-β1 mRNA expression” value in assay [3] is “big difference”. The “effect on TGF-β1 immunohistochemical staining in the tumor tissue” value in [4] is listed as “no effects”. The “reduction of immunostaining of CTGF in the tumor sections” value in [5] is listed as 25%. In addition, the “reduction of immunostaining of α-SMA in the tumor sections” value in assay [6] is given as 66%. Also, in [7], the “effect on active TGF-β1 level in the tumor tissue” value is recorded as “no effects” and the “effect on total TGF-β1 level in the tumor tissue” value is recorded as “no effects”. In addition, in assay [8] (i.p. for two weeks, P<0.05), the “collagen content at high dose (100 mg/kg) versus low dose (50 mg/kg)” value is “slightly lower”. Moreover, the “collagen type I contents in central and marginal regions of the tumor sections” value in assay [8] (pentoxifylline i.p. for two weeks versus saline) is reported as “reduced”. The “reduction of mRNA expression of collagen I compared to the control group” value in assay [9] was found to be 72%. Further, the “anti-tumor effects compared to the control group of saline treatment” value in [10] is “anti-tumor effects did not appear”.

Values taken from patent publication US20150374702A1 (CATHOLIC UNIVERSITY INDUSTRY ACADEMIC COOPERATION FOUNDATION, priority 2013, published 2015).
